Measured values: US20230183193A1, “4-DIFLUOROMETHYL BENZOYL AMIDES WITH HERBICIDAL ACTION” (BAYER CROPSCIENCE AKTIENGESELLSCHAFT, priority 2017, published 2023)

What was measured:
Type in all cases: in vivo
[1] = test system: Abutilon theophrasti; test: Pre-emergence herbicidal action, ABUTH; details: dosage 320 g/ha, scored visually after 3 weeks vs untreated controls
In short: (§1)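 Percent herbicidal activity rated by eye 3 weeks after pre-emergence soil-surface application, compared with untreated pots. Seeds sat under sandy loam; sprays carried 0.2% wetting agent.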

[2] = test system: Alopecurus myosuroides; test: Pre-emergence herbicidal action, ALOMY; details: dosage 320 g/ha, scored visually after 3 weeks vs untreated controls
In short: as §1

[3] = test system: Amaranthus retroflexus; test: Pre-emergence herbicidal action, AMARE; details: dosage 320 g/ha, scored visually after 3 weeks vs untreated controls
In short: as §1

[4] = test system: Avena fatua; test: Pre-emergence herbicidal action, AVEFA; details: dosage 320 g/ha, scored visually after 3 weeks vs untreated controls
In short: as §1

[5] = test system: Cyperus serotinus; test: Pre-emergence herbicidal action, CYPES; details: dosage 320 g/ha, scored visually after 3 weeks vs untreated controls
In short: as §1

[6] = test system: Matricaria inodora; test: Pre-emergence herbicidal action, MATIN; details: dosage 320 g/ha, scored visually after 3 weeks vs untreated controls
In short: as §1

[7] = test system: Setaria viridis; test: Pre-emergence herbicidal action, SETVI; details: dosage 320 g/ha, scored visually after 3 weeks vs untreated controls
In short: as §1

[8] = test system: Stellaria media; test: Pre-emergence herbicidal action, STEME; details: dosage 320 g/ha, scored visually after 3 weeks vs untreated controls
In short: as §1

[9] = test system: Viola tricolor; test: Pre-emergence herbicidal action, VIOTR; details: dosage 320 g/ha, scored visually after 3 weeks vs untreated controls
In short: as §1

[10] = test system: Abutilon theophrasti; test: Post-emergence herbicidal action, ABUTH; details: 80 g/ha, Table D
In short: (§2)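 Herbicidal effect is rated visually as percent versus untreated plants (100% = dead, 0% = like control) about 3 weeks after spraying. Plants were sown in sandy loam in the greenhouse and sprayed on green parts at the one-leaf stage, 2 to 3 weeks post-sowing.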

[11] = test system: Alopecurus myosuroides; test: Post-emergence herbicidal action, ALOMY; details: 80 g/ha, Table C
In short: as §2

[12] = test system: Amaranthus retroflexus; test: Post-emergence herbicidal action, AMARE; details: 80 g/ha, Table D
In short: as §2

[13] = test system: Avena fatua; test: Post-emergence herbicidal action, AVEFA; details: 80 g/ha, Table C
In short: as §2

[14] = test system: Pharbitis purpureum; test: Post-emergence herbicidal action, PHBPU; details: 80 g/ha, Table D
In short: as §2

[15] = test system: Setaria viridis; test: Post-emergence herbicidal action, SETVI; details: 80 g/ha, Table C
In short: as §2

[16] = test system: Stellaria media; test: Post-emergence herbicidal action, STEME; details: 80 g/ha, Table D
In short: as §2

[17] = test system: Viola tricolor; test: Post-emergence herbicidal action, VIOTR; details: 80 g/ha, Table D
In short: as §2

[18] = test system: ECHCG; test: Post-emergence herbicidal action, ECHCG; details: 80 g/ha, Table C
In short: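 Weed and crop plants grown in sandy loam in the greenhouse, treated at the one-leaf stage 2–3 weeks after sowing. Damage scored visually after about 3 weeks vs untreated controls (0% = control, 100% = dead).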

| Compound | herbicidal activity ABUTH [1] | herbicidal activity ALOMY [2] | herbicidal activity AMARE [3] | herbicidal activity AVEFA [4] | herbicidal activity CYPES [5] | herbicidal activity MATIN [6] | herbicidal activity SETVI [7] | Herbicidal activity STEME [8] | herbicidal activity VIOTR [9] | herbicidal activity ABUTH [10] | herbicidal activity ALOMY [11] | herbicidal activity AMARE [12] | herbicidal activity AVEFA [13] | Herbicidal activity PHBPU [14] | herbicidal activity SETVI [15] | Herbicidal activity STEME [16] | herbicidal activity VIOTR [17] | Herbicidal activity ECHCG [18] |
| --- | --- | --- | --- | --- | --- | --- | --- | --- | --- | --- | --- | --- | --- | --- | --- | --- | --- | --- |
| CCSc1c(C(F)F)ccc(C(=O)Nc2nnc(C)o2)c1Br [Example 7-62] | 100% | 100% | 100% | 90% | 80% | 90% | 100% | 100% | 100% | 100% | 90% | 100% | 100% | 90% | 100% | 100% | 100% | 100% |
| CSc1c(C(F)F)ccc(C(=O)Nc2nnnn2C)c1C1CC1 [Example 1-25] | 100% | 100% | 100% | 100% | 100% | 100% | 100% | 100% | 100% | 100% | 100% | 100% | 100% | 100% | 100% | 100% | 100% | 100% |
| CSc1c(C(F)F)ccc(C(=O)Nc2ncnn2C)c1Br [Example 4-61] | 100% | 100% | 100% | 90% | 90% | 100% | 100% | 90% | 100% | 100% | 100% | 100% | 100% | 100% | 100% | 100% | 100% | 100% |
| CCS(=O)(=O)c1c(C(F)F)ccc(C(=O)Nc2ncnn2C)c1Cl [Example 4-54] | 100% | 90% | 100% | 80% | 80% | 100% | 90% | 100% | 100% | 90% | 90% | 90% | 100% | 100% | 100% | 100% | 100% | 100% |
| CCSc1c(C(F)F)ccc(C(=O)Nc2nnnn2CC)c1CC [Example 2-16] | 100% | 100% | 100% | 100% | 100% | 100% | 100% | 100% | 100% | 100% | 90% | 100% | 90% | 100% | 90% | 100% | 100% | 90% |
| CCn1nnnc1NC(=O)c1ccc(C(F)F)c(S(=O)(=O)CC)c1C1CC1 [Example 2-30] | 100% | 100% | 100% | 100% | 90% | 100% | 100% | 100% | 100% | 100% | 90% | 100% | 90% | 90% | 100% | 100% | 100% | 100% |
| CCn1nnnc1NC(=O)c1ccc(C(F)F)c(S(=O)(=O)CC)c1I [Example 2-78] | 100% | 100% | 100% | 100% | 100% | 100% | 100% | 100% | 100% | 80% | 80% | 100% | 90% | 90% | 90% | 100% | 90% | 90% |
| CCn1nnnc1NC(=O)c1ccc(C(F)F)c(S(C)(=O)=O)c1Br [Example 2-63] | 100% | 100% | 100% | 100% | 90% | 100% | 100% | 100% | 100% | 100% | 100% | 100% | 100% | 100% | 100% | 100% | 100% | 100% |
